Measured values taken from US10947263B2, “Cyclic dinucleotides as anticancer agents” (BRISTOL-MYERS SQUIBB COMPANY, priority 2017, dated 2021).
Like-named read-outs stand apart in the source and are kept apart here.

Experiments:
[1] = system: STING / IRF pathway in THP1-Dual cells; assay: STING THP1 Reporter Assay, IRF pathway (secreted Lucia luciferase, QUANTI-Luc); assay type: cell-based; settings: 10% human plasma, 100% activation = 100 μM cGAMP, luciferase readout, read-out: THP1 Reporter Assays EC50 IRF3
Source text: (§1) THP1-Dual™ cells were derived from the human THP-1 monocyte cell line by stable integration of two inducible reporter constructs. To this end, THP1-Dual™ cells allow the simultaneous study of the […], by monitoring the activity of SEAP, and the IRF pathway by assessing the activity of a secreted luciferase (Lucia). Both reporter proteins are readily measurable in the cell culture supernatant when using QUANTI-Blue™, a SEAP detection reagent, and QUANTI-Luc™, a luciferase detection reagent.
(§2) THP1-Dual™ cells induce the activation of NF-κB in response to STING agonists. They also trigger the IRF pathway upon stimulation with STING agonists, such as cGAMP. Here, the THP-1-Dual cells were used to assess STING binders for function on the cellular level.
(§3) Serial dilutions of compounds in DMSO were added to low volume 384 well plates at 100 nl/well using an ECHO acoustic dispenser (Labcyte, model 550) to achieve final starting concentration of 100 μM in cell suspension. THP-1 Dual™ STING reporter cells (Invivogen, Dual cells cat #THPD-nfis) were added to the plates with compounds at 15,000 cells in 10 μL per well in RPMI media (Gibco, cat #11875) containing 10% human plasma in a low volume 384-well black wall clear bottom tissue culture plate (Corning, cat #3542) for SEAP assay and low volume solid white plate (Corning, cat #3826) for luciferase assay. One column of the plate was reserved for treatment with cGAMP at 100 μM for 100% activation calculation and one column for no treatment (DMSO only) for baseline activation. Plates were then incubated in 37 OC incubator at 5% CO2 for 20 hours.
(§4) In the SEAP assay, […] 2× QuantiBlue (Invivogen, cat #Rep-qb2) is added to 384 well black plates seeded with THP1 cells and incubated at 37° C. for 2 hours. Plates were read on the Envision (Perkin Elmer) at 620 nm wavelength (OD620). In the luciferase assay, 5 μl of Quantiluc (Invivogen, Rep-qlc2) is added to white 384 well plates seeded with THP1 cells and read at 5 minutes on the Envision (Perkin Elmer) using a luminescence protocol (RLU). For both cell lines, 100% activation was determined by value (RLU) of THP-1 Dual STING cells stimulated with 100 μM cGAMP (Invivogen, cat #TLRL-NACGA23-5).

[2] = system: STING / NF-κB pathway in THP1-Dual cells; assay: STING THP1 Reporter Assay, NF-κB pathway (SEAP, QUANTI-Blue); assay type: cell-based; settings: 10% human plasma, 100% activation = 100 μM cGAMP, SEAP readout, read-out: THP1 Reporter Assays EC50 NFkB
Source text: as §1, §2, §3, §4

[3] = target: T1, STING WT (His-TVMV-S-hSTING(155-341)-H232R) (Homo sapiens, UniProt Q86WV6, H232R); assay: STING HTRF binding assay (time resolved FRET competition), STING WT; settings: 20 nM His-tagged STING WT cytoplasmic domain, 200 nM fluorescein-labeled cGAMP analog probe, one hour; read-out: HTRF Binding Assays IC50 WT
T1 construct: STING WT: His-TVMV-S-hSTING(155-341)-H232R
Experimental: (§5) A time resolved FRET-based competition binding assay was used to assess test article binding to STING WT and STING AQ. His-tagged STING cytoplasmic domain (WT or AQ) at a concentration of 20 nM was incubated with 2.5 nM Tb-labeled anti-His antibody, test compound, and fluorescein-labeled cGAMP analog probe (BioLog cat. no. C195) at a concentration of 200 nM (STING WT) or 40 nM (STING AQ) in PBS containing 0.005% Tween-20 and 0.1% BSA for one hour. Fluorescence at 495 nm and 520 nm was measured using an EnVision microplate reader to quantify FRET between Tb-labeled anti-His antibody and fluorescein-labeled probe. Background was defined as the signal obtained in the absence of STING protein, and background subtracted FRET ratios were normalized to the maximum signal obtained in the absence of test compound. These values were converted to a percent inhibition. Percent inhibition was determined for test compounds at 11 concentrations. The IC50, defined as the concentration of competing test compound needed to reduce specific binding of the probe by 50%, was calculated using the 4 parameter logistic equation to fit the data
STING WT: His-TVMV-S-hSTING(155-341)-H232R • […] […] […] […] LRQEEKEEV (SEQ ID NO:1)

[4] = target: T2, STING AQ (His-TVMV-S-hSTING(155-341)-G230A-R293Q) (Homo sapiens, UniProt Q86WV6, G230A/H232R/R293Q); assay: STING HTRF binding assay (time resolved FRET competition), STING AQ; settings: 20 nM His-tagged STING AQ cytoplasmic domain, 40 nM fluorescein-labeled cGAMP analog probe, one hour; read-out: HTRF Binding Assays IC50 AQ
T2 construct: STING AQ: His-TVMV-S-hSTING(155-341)-G230A-R293Q
Experimental: as §5
STING AQ: His-TVMV-S-hSTING(155-341)-G230A-R293Q • […] […] […] […] LRQEEKEEV (SEQ ID NO:2)

T1 sequence (Q86WV6 with tags, fused parts or gaps H232R): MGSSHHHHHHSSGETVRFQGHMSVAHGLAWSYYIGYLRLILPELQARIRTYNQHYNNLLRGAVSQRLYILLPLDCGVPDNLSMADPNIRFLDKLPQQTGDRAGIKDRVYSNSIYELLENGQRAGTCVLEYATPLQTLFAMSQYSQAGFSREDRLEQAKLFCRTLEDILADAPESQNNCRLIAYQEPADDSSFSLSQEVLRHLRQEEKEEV
T2 sequence (Q86WV6 with tags, fused parts or gaps G230A/H232R/R293Q): as the sequence (Q86WV6 with tags, fused parts or gaps H232R) above, with G99A, R162Q counted along it

Row | EC50 ([1]; 20 hours) [nM] | EC50 ([2]; 20 hours) [nM] | IC50 [3] [nM] | IC50 [4] [nM] | EC50 ([1]; Homo sapiens, THP1-Dual, 20 h) [nM] | EC50 ([2]; Homo sapiens, THP1-Dual, 20 h) [nM] | Structure (SMILES)
1 | – | – | > 100000 | 66900 | > 100000 | > 100000 | Nc1ncnc2c1ncn2[C@@H]1O[C@@H]2COP(=O)(O)O[C@@H]3[C@H](O)[C@@H](COP(=O)(S)O[C@H]2[C@H]1O)O[C@H]3n1nnc2c([N+](=O)[O-])cccc21 (stereo partly drawn) [Example 18-1, (1R,6R,8R,9R,10S,15R,17R,18R)-8-(6-amino-9H-purin-9-yl)-3,9,18-trihydroxy-17-(4-nitro-1H-1,2,3-benzotriazol-1-yl)-12-sulfanyl-2,4,7,11,13,16-hexaoxa-3λ^5,12λ^5-diphosphatricyclo[13.2.1.0^6,10]octadecane-3,12-dione]
2 | 69400 | > 100000 | 900 | 40 | – | – | Nc1ncnc2c1ncn2[C@@H]1O[C@@H]2COP(=O)(S)O[C@@H]3[C@H](O)[C@@H](COP(=O)(S)O[C@H]2[C@H]1F)O[C@H]3n1nnc2c(C(F)(F)F)cccc21 (single isomer, unassigned) [Example 9-3]
3 | 1000 | 2400 | 10 | 10 | – | – | NC(=O)c1cccc2c1nnn2[C@@H]1O[C@@H]2COP(=O)(S)O[C@H]3[C@@H](F)[C@H](n4cnc5c(N)ncnc54)O[C@@H]3COP(=O)(S)O[C@@H]1[C@@H]2O (single isomer, unassigned) [Example 8-1]
4 | 5100 | 8900 | 50 | 5 | – | – | NC(=O)c1cccc2c1nnn2[C@@H]1O[C@@H]2COP(=O)(S)O[C@H]3[C@@H](F)[C@H](n4cnc5c(N)ncnc54)O[C@@H]3COP(=O)(S)O[C@@H]1[C@@H]2F (single isomer, unassigned) [Example 10-3]
5 | 7200 | 15300 | 60 | 10 | – | – | Nc1ncnc2c1ncn2[C@@H]1O[C@@H]2COP(=O)(S)O[C@@H]3[C@H](O)[C@@H](COP(=O)(S)O[C@H]2[C@H]1F)O[C@H]3n1nnc2c([N+](=O)[O-])cccc21 (single isomer, unassigned) [Example 7-3]

More lines, now with the values behind:

Row | Structure (SMILES) | EC50 ([1]; 20 hours) [nM] | EC50 ([2]; 20 hours) [nM] | IC50 [3] [nM] | IC50 [4] [nM] | EC50 ([1]; Homo sapiens, THP1-Dual, 20 h) [nM] | EC50 ([2]; Homo sapiens, THP1-Dual, 20 h) [nM]
6 | NC(=O)c1cccc2c1nnn2[C@@H]1O[C@@H]2COP(=O)(O)O[C@H]3[C@@H](F)[C@H](n4cnc5c4ncn4ccnc54)O[C@@H]3COP(=O)(S)O[C@@H]1[C@@H]2F (single isomer, unassigned) [Example 16-2] | 12700 | 73900 | 210 | 10 | – | –
7 | Nc1ncnc2c1ncn2[C@@H]1O[C@@H]2COP(=O)(S)O[C@@H]3[C@H](O)[C@@H](COP(=O)(S)O[C@H]2[C@H]1F)O[C@H]3n1nnc2c([N+](=O)[O-])cccc21 (single isomer, unassigned) [Example 7-4] | 5500 | 8000 | 50 | 10 | – | –
8 | Nc1ncnc2c1ncn2[C@@H]1O[C@@H]2COP(=O)(S)O[C@@H]3[C@H](O)[C@@H](COP(=O)(S)O[C@H]2[C@H]1F)O[C@H]3n1nnc2c([N+](=O)[O-])cccc21 (single isomer, unassigned) [Example 7-1] | 600 | 2100 | 10 | 10 | – | –
